# Values of other authors, collected in patent publication US20120289547A1, “COMBINATIONS OF PROPIVERINE AND SALIVARY STIMULANTS FOR THE TREATMENT OF OVERACTIVE BLADDER” (THERAVIDA, INC., priority 2011, published 2012).
# Settings: 5 mg of pilocarpine
structure (smiles),measurement,value
CC[C@@H]1C(=O)OC[C@@H]1Cc1cncn1C [pilocarpine],Time of maximum saliva output after administration,about 30 minutes
